The text below walks through data of US6753322B2, “2-aminocarbonyl-9H-purine derivatives” (Pfizer Inc, priority 2000, dated 2004).

In the assay the test system is neutrophils activated by fMLP. Description: superoxide production from neutrophils activated by fMLP. As to conditions: Neutrophil; concentration giving 50% inhibition of fMLP-induced superoxide production compared to control response; human peripheral blood neutrophils, cytochalasin B priming, adenosine deaminase present, cytochrome C reduction readout. It counts as cell-based. The method, then: This is evaluated by determining the compound profile in an assay where superoxide production was measured from neutrophils activated by fMLP. Neutrophils were isolated from human peripheral blood using dextran sedimentation followed by centrifugation through Ficoll-Hypaque solution. Any contaminating erythrocytes in the granulocyte pellet were removed by lysis with ice-cold distilled water. Superoxide production from the neutrophils was induced by fMLP in the presence of a priming concentration of cytochalasin B. Adenosine deaminase was included in the assay to remove any endogenously produced adenosine that might suppress superoxide production. The effect of the compound on the fMLP-induced response was monitored colorometrically from the reduction of cytochrome C within the assay buffer. The potency of the compounds was assessed by the concentration giving 50% inhibition (IC50) compared to the control response to fMLP.

In turn, `CCNC(=O)[C@H]1O[C@@H](n2cnc3c(NCC(c4ccccc4)c4ccccc4)nc(C(=O)N[C@@H]4CCN(C(=O)NCCc5ccccc5)C4)nc32)[C@H](O)[C@@H]1O` [Example 26] came in with an IC50 of less than 100 nM.

In the case of `CC(C)N(CCNC(=O)NCCNC(=O)c1nc(NCC(c2ccccc2)c2ccccc2)c2ncn([C@@H]3O[C@H](CO)[C@@H](O)[C@H]3O)c2n1)C(C)C` [Example 4], the IC50 was less than 100 nM. `CCNC(=O)[C@H]1O[C@@H](n2cnc3c(NCC(c4ccccc4)c4ccccc4)nc(C(=O)N4CC[C@@H](NC(=O)NCCN(C(C)C)C(C)C)C4)nc32)[C@H](O)[C@@H]1O` [Example 28] had an IC50 of less than 100 nM. Regarding `CCNC(=O)[C@H]1O[C@@H](n2cnc3c(NCC(c4ccccc4)c4ccccc4)nc(C(=O)NCCNC(=O)NC4CCN(c5ccccn5)CC4)nc32)[C@H](O)[C@@H]1O` [Example 8, 6-[(2,2-Diphenylethyl)amino]-9-{(2R,3R,4S,5S)-5-[(ethylamino)carbonyl]-3,4-dihydroxytetrahydro-2-furanyl}-N-{2-[({[1-(2-pyridinyl)-4-piperidinyl]amino}carbonyl)amino]ethyl}-9H-purine-2-carboxamide], the IC50 is less than 100 nM.

In the case of `CCNC(=O)[C@H]1O[C@@H](n2cnc3c(NCC(c4cccc(Cl)c4)c4cccc(Cl)c4)nc(C(=O)NCCNC(=O)NCCN(C(C)C)C(C)C)nc32)[C@H](O)[C@@H]1O` [Example 31], the IC50 was less than 100 nM.

`CCNC(=O)[C@H]1O[C@@H](n2cnc3c(NCC(c4ccccc4)c4ccccc4)nc(C(=O)NCCNC(=O)NCCc4ccccc4)nc32)[C@H](O)[C@@H]1O` [Example 14]: the half-maximal inhibitory concentration (IC50) is less than 100 nM.

`CCNC(=O)[C@H]1O[C@@H](n2cnc3c(NCC(c4ccccc4)c4ccccc4)nc(C(=O)N[C@@H]4CCN(C(=O)NC5CCN(c6ccccn6)CC5)C4)nc32)[C@H](O)[C@@H]1O` [Example 27] yielded an IC50 of less than 100 nM.

Regarding `CCNC(=O)[C@H]1O[C@@H](n2cnc3c(NCC(c4ccccc4)c4ccccc4)nc(C(=O)N[C@H]4CC[C@H](NC(=O)NCCN(C(C)C)C(C)C)CC4)nc32)[C@H](O)[C@@H]1O` [Example 21], the IC50 was less than 100 nM. `CCNC(=O)[C@H]1O[C@@H](n2cnc3c(NCC(c4ccccc4)c4ccccc4)nc(C(=O)N4CCC(NC(=O)NCc5ccccc5)CC4)nc32)[C@H](O)[C@@H]1O` [Example 25] gave a concentration for half-maximal inhibition (IC50) of less than 100 nM. As for `CCNC(=O)[C@H]1O[C@@H](n2cnc3c(NCC(c4ccccc4)c4ccccc4)nc(C(=O)NCCNC(=O)NCCN4CCc5ccccc5C4)nc32)[C@H](O)[C@@H]1O` [Example 16], the IC50 was less than 100 nM.

Regarding `CCNC(=O)[C@H]1O[C@@H](n2cnc3c(NCC(c4cccc(C)c4)c4cccc(C)c4)nc(C(=O)NCCNC(=O)NCCN(C(C)C)C(C)C)nc32)[C@H](O)[C@@H]1O` [Example 30, 6-{[2,2-Bis(3-methylphenyl)ethyl]amino}-N-{2-[({[2-(diisopropylamino)ethyl]amino}carbonyl)-amino]ethyl}-9-{(2R,3R,4S,5S)-5-[(ethylamino)carbonyl]-3,4-dihydroxytetrahydro-2-furanyl}-9H-purine-2-carboxamide], the IC50 was less than 100 nM. In turn, `CCNC(=O)[C@H]1O[C@@H](n2cnc3c(NCC(c4ccccc4)c4ccccc4)nc(C(=O)N4CC[C@H](NC(=O)NCCN(C(C)C)C(C)C)C4)nc32)[C@H](O)[C@@H]1O` [Example 29] gave an IC50 of less than 100 nM. The compound `CCNC(=O)[C@H]1O[C@@H](n2cnc3c(NCC(c4ccccc4)c4ccccc4)nc(C(=O)NCCNC(=O)NCCN(Cc4ccccc4)C(C)C)nc32)[C@H](O)[C@@H]1O` [Example 11] showed an IC50 of less than 100 nM. `CCNC(=O)[C@H]1O[C@@H](n2cnc3c(NCC(c4ccccc4)c4ccccc4)nc(C(=O)NCCNC(=O)NCCN(C(C)C)C4CCCCC4)nc32)[C@H](O)[C@@H]1O` [Example 7, N-(2-{[({2-[Cyclohexyl(isopropyl)amino]ethyl}amino)carbonyl]amino}ethyl)-6-[(2,2-diphenylethyl)amino]-9-{(2R,3R,4S,5S)-5-[(ethylamino)carbonyl]-3,4-dihydroxytetrahydro-2-furanyl}-9H-purine-2carboxamide]: the IC50 is less than 100 nM.

Compound `CCNC(=O)[C@H]1O[C@@H](n2cnc3c(NCC(c4ccccc4)c4ccccc4)nc(C(=O)NCCCNC(=O)NCCN(C(C)C)C(C)C)nc32)[C@H](O)[C@@H]1O` [Example 19] registered an IC50 of less than 100 nM.

`CCNC(=O)[C@H]1O[C@@H](n2cnc3c(NCC(c4ccccc4)c4ccccc4)nc(C(=O)NCCNC(=O)NCCN(C(C)C)C(C)C)nc32)[C@H](O)[C@@H]1O` [Example 2] registered an IC50 of less than 100 nM. For the compound `CCNC(=O)[C@H]1O[C@@H](n2cnc3c(NCC(c4ccccc4)c4ccccc4)nc(C(=O)NCCNC(=O)NCc4ccc(C(=O)O)cc4)nc32)[C@H](O)[C@@H]1O` [Example 34, 4-[({[(2-{[(6-[(2,2-diphenylethyl)amino]-9-{(2R,3R,4S,5S)-5-[(ethylamino)carbonyl]-3,4-dihydroxytetrahydro-2-furanyl}-9H-purine-2-yl)carbonyl]amino}ethyl)amino]carbonyl}-amino)methyl]benzoic acid], the IC50 is less than 100 nM. `CCNC(=O)[C@H]1O[C@@H](n2cnc3c(NCC(c4ccccc4)c4ccccc4)nc(C(=O)NCCNC(=O)NCCN4CCC(C(C)C)CC4)nc32)[C@H](O)[C@@H]1O` [Example 5, 6-[(2,2-Diphenylethyl)amino]-9-{(2R,3R,4S,5S)-5-[(ethylamino)carbonyl]-3,4-dihydroxytetrahydro-2-furanyl}-N-{2-[({[2-(4-isopropyl-1-piperidinyl)ethyl]amino}carbonyl)amino]ethyl}-9H-purine-2-carboxamide] returned an IC50 of less than 100 nM. In turn, `O=C(NCCNC(=O)c1nc(NCC(c2ccccc2)c2ccccc2)c2ncn([C@@H]3O[C@H](CO)[C@@H](O)[C@H]3O)c2n1)NCCN1CCCCC1` [Example 3, 9-[(2R,3R,4S,5R)-3,4-Dihydroxy-5-(hydroxymethyl)tetrahydro-2-furanyl]-6-[(2,2-diphenylethyl)amino]-N-{2-[({[2-(1-piperidinyl)ethyl]amino}carbonyl)amino]ethyl}-9H-purine-2-carboxamide] displayed an IC50 of less than 100 nM. The figure for `CCNC(=O)[C@H]1O[C@@H](n2cnc3c(NCC(c4ccccc4)c4ccccc4)nc(C(=O)NCCNC(=O)NCc4ccccc4)nc32)[C@H](O)[C@@H]1O` [Example 13] is less than 100 nM; for `CCNC(=O)[C@H]1O[C@@H](n2cnc3c(NCC(c4ccccc4)c4ccccc4)nc(C(=O)NCCNC(=O)NC4CCN(Cc5ccccc5)CC4)nc32)[C@H](O)[C@@H]1O` [Example 10] it is less than 100 nM. `CCNC(=O)[C@H]1O[C@@H](n2cnc3c(NCC(c4ccccc4)c4ccccc4)nc(C(=O)NCCNC(=O)NCCN(C(C)C)C4CCCC4)nc32)[C@H](O)[C@@H]1O` [Example 6, N-(2-{[({2-[Cycopentyl(isopropyl)amino]ethyl}amino)carbonyl]amino}ethyl)-6-[(2,2-diphenylethyl)amino]-9-{(2R,3R,4S,5S)-5-[(ethylamino)carbonyl]-3,4-dihydroxytetrahydro-2-furanyl}-9H-purine-2-carboxamide] gave an IC50 of less than 100 nM.

Consider `CCNC(=O)[C@H]1O[C@@H](n2cnc3c(NCC(c4cccc(C)c4)c4cccc(C)c4)nc(C(=O)NCCNC(=O)NCCN4CCCCC4)nc32)[C@H](O)[C@@H]1O` [Example 33], for which the IC50 was less than 100 nM.

A word on the IC50: it is the concentration that inhibits the measured activity by half.
